Assay results taken from EP1082319B1, “BENZOCARBAZOLE AND INDENOINDOLE DERIVED ESTROGENIC AGENTS” (Wyeth, priority 1998, dated 1999).

Tests used:
estrogen receptor = molecular target: T1, estrogen receptor (Homo sapiens, UniProt P03372); experiment: In vitro estrogen receptor binding assay (competition with [3H]-17β-estradiol, cytosol of CHO cells overexpressing the receptor); conditions: for IC50: read-out: Receptor Binding IC50's; for binding to the ER receptor, comparison in words: compared with the indenoindole Example 4, from Table 2
T1 construct: expressed in transfected cells; host or cells: CHO cells (ribosome-free cytosol)
T1 sequence (P03372 1-595): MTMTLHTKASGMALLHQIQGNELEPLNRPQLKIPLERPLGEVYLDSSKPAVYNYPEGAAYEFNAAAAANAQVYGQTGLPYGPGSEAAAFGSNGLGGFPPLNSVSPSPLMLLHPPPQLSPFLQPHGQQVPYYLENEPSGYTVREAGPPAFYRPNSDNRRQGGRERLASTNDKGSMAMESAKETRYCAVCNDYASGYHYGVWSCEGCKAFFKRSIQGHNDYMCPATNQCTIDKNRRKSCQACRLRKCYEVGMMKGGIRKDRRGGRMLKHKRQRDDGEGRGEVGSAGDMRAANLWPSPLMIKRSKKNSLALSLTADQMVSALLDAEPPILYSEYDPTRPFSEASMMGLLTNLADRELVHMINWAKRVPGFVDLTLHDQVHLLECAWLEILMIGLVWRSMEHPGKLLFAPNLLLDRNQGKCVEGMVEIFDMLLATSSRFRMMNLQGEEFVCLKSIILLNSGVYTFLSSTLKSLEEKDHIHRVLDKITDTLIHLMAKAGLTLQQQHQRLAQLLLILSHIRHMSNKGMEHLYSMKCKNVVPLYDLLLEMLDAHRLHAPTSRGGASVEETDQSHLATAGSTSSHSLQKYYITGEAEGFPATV
Experimental: The plates were washed twice with PBS and once with 10 mM Tris-HCl, pH 7.4, 1 mM EDTA. Cells were harvested by scraping the surface and then the cell suspension was placed on ice. Cells were disrupted with a hand-held motorized tissue grinder using two, 10-second bursts. The crude preparation was centrifuged at 12,000g for 20 minutes followed by a 60 minute spin at 100,000g to produce a ribosome free cytosol. The cytosol was then frozen and stored at -80°C. Protein concentration of the cytosol was estimated using the BCA assay with reference standard protein. […] The plate was incubated at room temperature for 2.5 h. At the end of this incubation period 150 uL of ice-cold dextran coated charcoal (5% activated charcoal coated with 0.05% […] dextran) was added to each well and the plate was immediately centrifuged at 99g for 5 minutes at 4°C. 200 uL of the supernatant solution was then removed for scintillation counting. […] Also, wells containing radioactivity but no cytosol were processed with charcoal to estimate unremovable DPM of [^3H] 17β-estradiol. Counts per minute (CPM) of radioactivity were automatically converted to disintegrated per minute (DPM) by the Beckman LS 7500 Scintillation Counter using a set of quenched standards to generate a H# for each sample. […]

human estrogen receptor = molecular target: T2, human estrogen receptor (Homo sapiens, UniProt P03372); experiment: 2X VIT ERE infection luciferase assay in CHO cells stably transfected with the human estrogen receptor; type: cell-based; conditions: for Infection Luciferase Activity, 1 uM + 17β estradiol: 1 uM compound + 1 nM 17β-estradiol, 24 h (tests for estrogen antagonism), percentage of activity as compared to 17β-estradiol; for Infection Luciferase Activity, 1 uM: 1 uM compound alone, 24 h, percentage of activity as compared to 17β-estradiol (agonism)
T2 construct: expressed in transfected cells
Experimental: Chinese Hamster Ovary cells (CHO) which had been stably transfected with the human estrogen receptor were maintained in DMEM + 10% fetal bovine serum (FBS). 48h prior to treatment the growth medium was replaced with DMEM lacking phenol red + 10% dextran coated charcoal stripped FBS (treatment medium). Cells were plated at a density of 5000 cells/well in 96-well plates containing 200 µL of medium/well.
Reporter DNA (Promega plasmid pGL2 containing two tandem copies of the vitellogenin ERE in front of the minimal thymidine kinase promoter driving the luciferase gene) was combined with the B-galactosidase expression plasmid pCH110 (Pharmacia) and carrier DNA (pTZ18U) in the following ratio: • 10uG of reporter DNA • 5uG of pCH110DNA • 5 uG of pTZ18U • 20 uG of DNA/1 mL of transfection solution
The DNA (20uG) was dissolved in 500 uL of 250 mM sterile CaCl2 and added dropwise to 500 uL of 2 X HeBS (0.28 M NaCl, 50 mM HEPES, 1.5 mM Na2HPO4, pH 7.05) and incubated at room temperature for 20 minutes. 20 uL of this mixture was added to each well of cells and remained on the cells for 16 h. […] Each treatment condition was performed on 8 wells (n=8) which were incubated for 24 h prior to the luciferase assay.
After 24h exposure to compounds, the media was removed and each well washed 2X with 125 uL of PBS lacking Mg^++ and Ca^++. After removing the PBS, 25 uL of Promega lysis buffer was added to each well and allowed to stand at room temperature for 15 min, followed by 15 min at -80°C and 15 min at 37°C. 20 uL of lysate was transferred to an opaque 96 well plate for luciferase activity evaluation and the remaining lysate (5 uL) was used for the B-galactosidase activity evaluation (normalize transfection). The luciferan substrate (Promega) was added in 100 uL aliquots to each well automatically by the luminometer and the light produced (relative light units) was read 10 seconds after addition.
To the remaining 5 uL of lysate 45 uL of PBS was added. Then 50 uL of Promega B-galactosidase 2X assay buffer was added, mixed well and incubated at 37°C for 1 hour. A plate containing a standard curve (0.1 to 1.5 milliunits in triplicate) was set up for each experimental run. The plates were analyzed on a Molecular Devices spectrophotometric plate reader at 410 nm. The optical densities for the unknown were converted to milliunits of activity by mathematical extrapolation from the standard curve.
The luciferase data was generated as relative light units (RLUs) accumulated during a 10 second measurement and automatically transferred to a JMP (SAS Inc) file where background RLUs were subtracted. The B-galactosidase values were automatically imported into the file and these values were divided into the RLUs to normalize the data. The mean and standard deviations were determined from a n=8 for each treatment.

SMILES | IC50 (estrogen receptor) [nM] | Infection Luciferase Activity, 1 uM + 17β estradiol (human estrogen receptor) [%] | Infection Luciferase Activity, 1 uM (human estrogen receptor) [%] | binding to the ER receptor, comparison in words (estrogen receptor)
COc1ccc2c(c1)Cc1c-2n(Cc2ccc(OCCN3CCCCC3)cc2)c2ccc(O)cc12 [Example 4, 2-Methoxy-5-[4-(2-piperidin-1-yl-ethoxy)-benzyl]-5,10-dihydro-indeno[1,2-b]indol-8ol] | 430 | 83 | -2 | –
COc1ccc2c(c1)CCc1c-2n(Cc2ccc(OCCN3CCCCC3)cc2)c2ccc(O)cc12 [Example 13, 3-Methoxy-11-[4-(2-piperidin-1-yl-ethoxy)-benzyl]-5,11-dihydro-6H-benzo[a]carbazol-8-ol] | 110 | 1 | -7 | bind better to the ER receptor than the indenoindole Example 4
COc1ccc2c(c1)CCc1c-2n(Cc2ccc(OCCN3CCCCCC3)cc2)c2ccc(O)cc12 [Example 14] | 190 | 8 | 1 | bind better to the ER receptor than the indenoindole Example 4
